“Also recorded” adds a separate entry of the source. Where no end group is shown, it is not given here.

These results are taken from PMC4204617 (Frontiers in Cellular Neuroscience, 2014).

Data set [1] has as its system Cx43 hemichannels in astrocytes. To be noted: hippocampal slices; ref Rouach et al., 2008, Supplementary Data Figure S5; cited from earlier work. The method, then:
The inhibitory effect of Gap19 in situ was then tested by performing the Etd^+ uptake assay in acute hippocampal brain slices from GFAP-eGFP transgenic mice. […] This increase ... || Gap19 is a peptide that corresponds to a sequence on the cytoplasmic loop (CL) of Cx43. Its sequence is part of the L2 domain that is involved in interactions of the CL with the CT-tail of Cx43. […] This differential effect is most probably the consequence of distinct channel configurations of hemichannels as compared ...

Data set [2] has as its system hemichannels. Conditions: cited from earlier work; for Hemichannel-only effect: ref not given. The text has this:
Gap junction channels form junctional plaques that are composed of two docked hemichannels oligomerized from six Cx protein subunits. […] Stehberg and collaborators have used TAT-L2 for local injection in the amygdala in in vivo animal studies on fear memory (Stehberg et al., [2012]).

For data set [3], the target named is Gap19 (UniProt P17302). To be noted: cited from earlier work.
Sequence of Gap19 (P17302 whole entry, looked up): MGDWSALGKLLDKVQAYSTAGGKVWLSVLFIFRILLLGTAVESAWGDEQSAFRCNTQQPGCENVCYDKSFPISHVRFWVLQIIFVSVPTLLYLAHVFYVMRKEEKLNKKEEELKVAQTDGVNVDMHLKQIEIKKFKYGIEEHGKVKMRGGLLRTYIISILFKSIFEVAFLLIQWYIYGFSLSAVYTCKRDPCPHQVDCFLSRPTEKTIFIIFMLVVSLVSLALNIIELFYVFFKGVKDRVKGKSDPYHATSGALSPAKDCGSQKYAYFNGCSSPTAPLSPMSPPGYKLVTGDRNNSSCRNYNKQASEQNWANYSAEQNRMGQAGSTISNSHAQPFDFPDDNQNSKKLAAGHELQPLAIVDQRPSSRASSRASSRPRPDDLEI
Data set [4] deals with T1, Cx43 hemichannels (Mus musculus, UniProt P23242). Kind of data set: Etd+ uptake in cultured astrocytes treated with TNF-α/IL-1β. Also noted: endogenous in cells; host or cells: primary cortical astrocytes from newborn OF1 mice. The format is cell-based, mouse (OF1). To be noted: astrocyte cultures, "in the 250 μM range", read-out: Half-maximal effect concentration, hemichannels opened with TNF-α/IL-1β. The method, then: (§1) Primary astrocyte cultures were prepared from the cortex of newborn (1–2 days) OF1 mice as described previously (Meme et al., [2006]). Briefly, cells were seeded into 100-mm diameter plastic dishes (Nunc, Roskilde, Denmark) at the density of 3 × 10^6 cells/dish in DMEM (Sigma-Aldrich, St-Louis MO, USA), supplemented with penicillin (5 U/ml), streptomycin (5 μg/ml) (Invitrogen, Carlsbad, CA, USA) and 10% FCS (Hyclone, Logan, UT, USA). The medium was changed twice a week. When cells reached confluence, around 10 days in vitro (DIV), they were harvested with trypsin-EDTA (Invitrogen). […]
T1 sequence (P23242 whole entry): as the sequence (P17302 whole entry, looked up) above, with D124E, I164V, K243R, S251T, A253P, A257S, Q263P, N341S, S344A, L347V counted along it
Hemichannel activity in cultured astrocytes was induced either by treatment with two pro-inflammatory cytokines, TNF-α and IL-1β (Retamal et al., [2007]) or by exposing the cells to a Ca^2+-free solution (Stout et al., [2002]). […] Captured images of Etd^+ uptake were analyzed with the Image J program (NIH software).
(§2) The data are expressed as mean ± s.e.m., with “n” denoting the number of independent experiments. […] In experiments where the effects of different treatments were assessed on normalized data, non-parametric ANOVA Kruskal-Wallis tests were performed. […] Unless stated otherwise, significance as compared to control condition based on the raw data (before normalization) was assessed by two-tailed Wilcoxon signed-ranked tests. […]

Data set [5] deals with T1, Cx43 hemichannels. Kind of data set: Glutamate-triggered ATP release in cultured cortical astrocytes. To be noted: primary cortical astrocyte cultures; glutamate 100 μM, 15 min; Gap19 30 min pre-incubation; n = 6 independent experiments; read-out: IC50 / half-maximal effect concentration for glutamate-triggered ATP release. The data set is classed as cell-based, mouse (OF1). Also noted: endogenous in cells; host or cells: primary cortical astrocytes from newborn OF1 mice. The protocol:
as §1, §2
While in vivo astrocytes express two major Cxs, Cx43 and Cx30, astrocytes in primary culture offer the advantage that only one of them is expressed, namely Cx43 (Giaume et al., [1991a]). Indeed, Cx30 is detected in astrocytes only either after 10–11 weeks of solo-culture (Kunzelmann et al., [1999]) or in 3 week-old astrocytes after 1 week of co-culture with neurons (Koulakoff et al., [2008]). […]

The target in data set [6] is T1, Cx43 hemichannels. Kind of data set: Etd+ uptake in astrocytes of acute hippocampal slices, Ca2+-free solution. The data set is classed as cell-based, mouse (GFAP-eGFP). Also on record: performing the Etd^+ uptake assay in acute hippocampal brain slices from GFAP-eGFP transgenic mice; from tissue; host or cells: acute hippocampal slices of GFAP-eGFP mice (GFP-positive astrocytes). Conditions: zero extracellular Ca2+, "in the 250 μM range", read-out: Half-maximal effect concentration, zero extracellular Ca2+ in brain slices. The protocol:
GFAP-eGFP mice (Nolte et al., [2001]) were decapitated and their brains were rapidly removed. Hippocampi were dissected and placed in ice-cold artificial cerebrospinal fluid (ACSF) equilibrated with 95% O2–5% CO2. Transverse hippocampal slices (300–400 μm thick) were cut on a vibroslicer (Leica VT 1000S, Wetzlar, Germany) and transferred to a holding chamber where they rested on a nylon mesh, submerged in oxygenated ACSF at room temperature for a stabilization period of 45 min before recodings. The ACSF solution contained in mM: NaCl 134; KCl 2.8; NaHCO3 29; NaH2PO4 1.1; glucose 12; MgSO4 1.5; CaCl2 2.5.
In slices derived from GFAP-eGFP mice, astrocytes were identified by GFP fluorescence and hemichannel activity was investigated. […] In order to be sure that we were quantifying Etd^+ uptake in astrocytes, in this study hemichannel activity was only considered in GFP-positive cells. […] Fluorescence was quantified in arbitrary units (AU), Image J program (NIH software). Dye uptake intensity was evaluated as the difference (F—F0) between the fluorescence (F) from astrocytes (20—30 cells per slice) and the background fluorescence (F0) measured in the same field where no labeled cells were detected. […]
The data are expressed as mean ± s.e.m., with “n” denoting the number of independent experiments. […]

Data set [7] in a line: Brain TAT immunostaining 1 h after intra-carotid injection. The data set is classed as in vivo, mouse (C57Bl6). The protocol: Two different approaches were used for in vivo delivery of TAT-Gap19. For acute experiments, 4 months old C57Bl6 male mice were subjected to intra-carotid injection of 45 mg/kg TAT-Gap19 (GenScript, Pistcataway, NJ, US) dissolved in saline. After 1 h the mice were deeply anesthetized with sodium pentobarbital (120 mg/kg intraperitoneally) and were transcardially perfused with cold ice phosphate-buffered saline (PBS) followed by perfusion with 10% formalin (Sigma-Aldrich, Oakville, Canada). Brains were removed and stored in 10% formalin and the next day were cryoprotected in 30% sucrose in PBS solution. Cortical brain sections, 10 μm thick, were collected and mounted sequentially on glass microscope slides. Immunohistochemistry was performed on the sections as previously described (Ozog et al., [2002]; Nakase et al., [2004]; Kozoriz et al., [2010]). Ten μm thick glass mounted sections were rehydrated in PBS and then blocked in PBS pH 7.4 containing 0.3% Triton-X-100 (TX100, Fisher Scientific) and 2% bovine serum albumin (BSA; Invitrogen, Canada) for 1 h, and incubated overnight in PBS containing 1.0% BSA, 0.3% TX100 and anti-TAT primary antibody (1/100 dilution; Cat # CB0888, Cell Applications, Inc., USA). The following day, the slices were washed with PBS (3 × 10 min) and subsequently incubated for 1 h with secondary antibody (anti-mouse IgG tagged with Alexa 488; Molecular Probes, USA) in PBS containing 1% BSA, 0.3% TX100. Slices were then rinsed 3 times for 10 min with PBS and mounted with ProLong Gold antifade reagent with DAPI. Images were obtained using the same exposure times on a Ziess Axiophot Epifluorescent microscope, Zeiss Canada, Toronto).

Sequence of Connexin43 C-terminal tail (P17302 232-382): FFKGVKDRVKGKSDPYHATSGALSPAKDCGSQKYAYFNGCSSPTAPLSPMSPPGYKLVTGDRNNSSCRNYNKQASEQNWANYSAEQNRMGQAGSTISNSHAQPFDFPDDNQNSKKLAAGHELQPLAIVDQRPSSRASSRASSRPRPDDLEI

On to `CC1(C)[C@@H](OC(=O)CCC(=O)O)CC[C@]2(C)[C@H]3C(=O)C=C4[C@@H]5C[C@@](C)(C(=O)O)CC[C@]5(C)CC[C@@]4(C)[C@]3(C)CC[C@@H]12` [carbenoxolone], for which the “Block of hemichannel activity induced by calcium-free solution” value in data set [1] is “can be inhibited by carbenoxolone in hippocampal slices; also recorded: blocks hemichannel activity induced by a calcium free solution”. Also, in data set [2] (ref not printed at this statement (nearby: Takeuchi et al., 2011)), the “Discrimination between gap junctions and hemichannels” value is “poorly discriminate between gap junctions and hemichannels”.
Consider `[Gd+3]` [gadolinium (Gd^3+), gadolinium], for which the Hemichannel-only effect entry in data set [2] is “supposed to affect only hemichannels”.
`[La+3]` [lanthanum (La^3+), lanthanum]: the Hemichannel-only effect result in data set [2] is “supposed to affect only hemichannels”.
A word on the Kd: it is a measure of binding affinity in units of concentration. Take “Connexin43 C-terminal tail (from UniProt P17302)”: in data set [3], the Kd is 2.5 µM.
Turning to KQIEIKKFK [Gap19, KQIEIKKFK], the IC50 in data set [4] was approximately 250 µM; in data set [5] it was 142 µM; in data set [6], approximately 250 µM.
For the compound “YGRKKRRQRRRKQIEIKKFK [TAT-Gap19, YGRKKRRQRRR-KQIEIKKFK]”, the “TAT immunoreactivity in brain, 1 h after carotid injection” value in data set [7] (45 mg/kg intra-carotid, 4 months old male mice, 1 h, anti-TAT antibody, compared with vehicle (PBS)) is listed as “readily detected throughout the brain; also recorded: clear TAT immunoreactivity”. Further, the “TAT peptide in GFAP-positive astrocytes (double labeling anti-TAT/anti-GFAP)” value in data set [7] (45 mg/kg intra-carotid, 1 h, cortex) is “some GFAP-positive astrocytes (white arrows) have taken up the TAT peptide; also recorded: reaches GFAP-positive astrocytes, however, several TAT-positive cells are apparently not GFAP-positive”. Also, the Blood-brain barrier crossing result in data set [7] (in vivo injection, immunostaining for TAT moiety, intra-carotid and i.v. experiments taken together) was “traverses the blood-brain barrier and is retained in the cells; also recorded: can successfully cross the blood-brain barrier”.
